pIC50: −log10 of the molar value. Read-outs that look alike come from different tables or passages of the source.
Key:
TYK2 = settings: read-out: In vitro IC50 TYK2, cited from earlier work
[1] = test system: IL-4 induced STAT6 phosphorylation in BMDMs from JAK3 Cys905Ser knockin mice; test: IL-4 induced STAT6 phosphorylation in JAK3 Cys905Ser knockin BMDMs (immunoblot); type: cell-based, mouse; settings: for pIC50: Mus musculus, BMDM, 0.5 h, 10 ng/ml IL-4 30 min, pSTAT6 Tyr641 immunoblot, two independent experiments
Protocol: (§1) Figure 3 Effect of JAK3 inhibitors on IL-4 induced STAT6 phosphorylation. BMDMs were isolated from wild type and JAK3 Cys905Ser knockin mice. Cells were incubated with the indicated concentrations of inhibitor before stimulation for 30 min with 10 ng/ml IL-4. Cells were lysed and the levels of STAT6 phosphorylated at Tyr641 were assessed by immunoblotting. Levels of ERK1/2 were determined as a loading control.
(§2) Bone marrow derived macrophages (BMDMs) were cultured as described. Briefly, bone marrow was flushed in PBS from the femurs and tibias of mice. Cells were cultured on bacterial grade plastic for 7 days at 37 °C, 5% CO2. Cells were then detached using Versene (Gibco), re-plated on tissue culture plastic in BMDM media (in DMEM supplemented with 10% heat inactivated FBS (Labtech), 2 mM L-glutamine, 100 U/ml penicillin G, 100 μg/ml streptomycin and 0.25 μg/ml amphotericin, 5 ng/ml M-CSF) and used within 48 h. Where indicated cells were stimulated with 10 ng/ml IL-4, 10 ng/ml GM-CSF, 10 ng/ml IL-10 or 10 ng/ml IFNβ. All cytokines were from PeproTech.
(§3) Cells were lysed directly into SDS sample buffer and aliquots run on 10% polyacrylamide gels using standard methods. Proteins were transferred onto nitrocellulose membranes, and specific proteins were detected by immunoblotting. Antibodies against tyrosine phosphorylated STATs were from Cell Signaling Technology (phospho-STAT1 #9167, phospho-STAT3 #9131, phospho-STAT5 #4322 and phospho-STAT6 #9361). The total ERK1/2 antibody used as a loading control was also from cell Signaling Technology (#4695). HRP-conjugated secondary antibodies were obtained from Pierce. Bands were detected using Clarity ECL reagents from BioRad and imaged on a Licor Odyssey Fc system. Quantification was carried out using Licor Image Studio software. After correction for the ERK1/2 levels to account for loading differences, percentage inhibition was calculated relative to the IL-4 stimulated condition. IC50 values were calculated using the same methods as for the in vitro IC50 values.

[2] = test system: IL-4 induced STAT6 phosphorylation in wild type BMDMs; test: IL-4 induced STAT6 phosphorylation in wild type BMDMs (immunoblot); type: cell-based; settings: Mus musculus, BMDM, 0.5 h; 10 ng/ml IL-4 30 min, pSTAT6 Tyr641 immunoblot, two independent experiments
Protocol: as §1, §2, §3

PKCa = PKCa (Homo sapiens, UniProt P17252); test: Selectivity screen PKCa; type: biochemical; settings: 1 µM inhibitor, mean
Protocol: (§4) For the in vitro kinase assay, JAK3 (5–20 mU diluted in 50 mM Tris pH 7.5, 0.1 mM EGTA, 0.05% β-mercaptoethanol, 1 mg/ml BSA) was assayed against PDKtide ([…]) in a final volume of 25.5 µl containing 50 mM Tris pH 7.5, 0.1 mM EGTA, 0.05% β-mercaptoethanol, 100 µM substrate peptide, 10 mM magnesium acetate and 0.02 mM [33P-γ-ATP] (50–1000 cpm/pmole) and incubated for 30 min at room temperature. Assays were started by the addition of the ATP and stopped by addition of 5 µl of 0.5 M (3%) orthophosphoric acid and then harvested onto P81 Unifilter plates with a wash buffer of 50 mM orthophosphoric acid. To determine the Km for ATP, assays were run using 1, 5, 10, 20, 50, 100, 200, 400, 500 μM ATP and Km derived by non-linear regression fitting to the Michaelis–Menten equation v = Vmax[S]/(Km + [S]). IC50 values for inhibitors via non-linear regression using a parameter model: Y = Bottom + (Top–Bottom)/(1 + (IC50/X)^HillSlope). Non-linear regression was carried out in Prism (version 8). In vitro selectivity screen was carried out as described previously.

PKBb = PKBb (Homo sapiens, UniProt P31751); test: Selectivity screen PKBb; type: biochemical; settings: 1 µM inhibitor, mean; read-out: activity remaining in the presence of the inhibitor: PKBb
Chain of PKBb (P31751 whole entry): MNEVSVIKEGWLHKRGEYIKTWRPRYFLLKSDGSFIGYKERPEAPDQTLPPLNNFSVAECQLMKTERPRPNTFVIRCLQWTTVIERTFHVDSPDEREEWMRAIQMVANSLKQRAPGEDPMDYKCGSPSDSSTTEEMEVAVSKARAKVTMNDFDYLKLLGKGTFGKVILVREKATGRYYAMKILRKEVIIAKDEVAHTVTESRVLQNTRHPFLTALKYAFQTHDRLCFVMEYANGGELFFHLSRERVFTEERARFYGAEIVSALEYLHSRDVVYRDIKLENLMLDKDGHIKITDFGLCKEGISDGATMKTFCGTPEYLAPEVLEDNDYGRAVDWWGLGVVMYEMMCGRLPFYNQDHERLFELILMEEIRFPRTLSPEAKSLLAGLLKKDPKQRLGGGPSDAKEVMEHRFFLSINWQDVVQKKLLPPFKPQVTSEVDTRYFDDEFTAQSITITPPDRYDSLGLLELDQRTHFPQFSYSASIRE
Protocol: as §4

p38a MAPK = p38a MAPK (Homo sapiens, UniProt Q16539); test: Selectivity screen p38a MAPK; type: biochemical; settings: 1 µM inhibitor, mean
Protocol: as §4

SmMLCK = SmMLCK (Homo sapiens, UniProt Q15746); test: Selectivity screen SmMLCK; type: biochemical; settings: 1 µM inhibitor, mean
Chain of SmMLCK (Q15746 923-1914): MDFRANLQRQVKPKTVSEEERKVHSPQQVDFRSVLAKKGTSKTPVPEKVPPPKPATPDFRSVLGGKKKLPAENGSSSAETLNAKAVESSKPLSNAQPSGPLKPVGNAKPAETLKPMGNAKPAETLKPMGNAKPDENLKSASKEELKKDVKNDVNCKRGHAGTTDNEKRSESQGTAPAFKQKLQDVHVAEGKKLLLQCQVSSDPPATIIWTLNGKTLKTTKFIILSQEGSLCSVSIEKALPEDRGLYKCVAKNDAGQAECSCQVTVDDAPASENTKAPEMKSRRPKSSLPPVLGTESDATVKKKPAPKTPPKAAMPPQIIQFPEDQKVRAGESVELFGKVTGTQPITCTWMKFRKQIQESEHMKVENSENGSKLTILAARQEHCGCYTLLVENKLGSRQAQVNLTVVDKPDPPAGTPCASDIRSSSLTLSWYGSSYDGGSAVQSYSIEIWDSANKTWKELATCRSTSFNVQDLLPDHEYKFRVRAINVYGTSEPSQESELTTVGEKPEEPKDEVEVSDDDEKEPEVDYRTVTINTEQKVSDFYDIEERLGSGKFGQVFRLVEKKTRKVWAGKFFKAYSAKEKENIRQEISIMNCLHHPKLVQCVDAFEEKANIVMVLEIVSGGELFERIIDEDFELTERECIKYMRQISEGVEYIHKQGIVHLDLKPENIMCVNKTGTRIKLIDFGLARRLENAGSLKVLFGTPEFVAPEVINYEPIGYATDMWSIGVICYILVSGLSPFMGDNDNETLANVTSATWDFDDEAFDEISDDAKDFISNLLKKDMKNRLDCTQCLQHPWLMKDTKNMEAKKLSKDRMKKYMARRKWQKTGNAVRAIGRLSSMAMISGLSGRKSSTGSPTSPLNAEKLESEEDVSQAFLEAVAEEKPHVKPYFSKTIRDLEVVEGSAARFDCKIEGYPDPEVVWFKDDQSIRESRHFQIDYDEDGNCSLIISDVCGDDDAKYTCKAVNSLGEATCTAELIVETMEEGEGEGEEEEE
Protocol: as §4

HIPK2 = HIPK2 (Homo sapiens, UniProt Q9H2X6); test: Selectivity screen HIPK2; type: biochemical; settings: 1 µM inhibitor, mean
Chain of HIPK2 (Q9H2X6 whole entry): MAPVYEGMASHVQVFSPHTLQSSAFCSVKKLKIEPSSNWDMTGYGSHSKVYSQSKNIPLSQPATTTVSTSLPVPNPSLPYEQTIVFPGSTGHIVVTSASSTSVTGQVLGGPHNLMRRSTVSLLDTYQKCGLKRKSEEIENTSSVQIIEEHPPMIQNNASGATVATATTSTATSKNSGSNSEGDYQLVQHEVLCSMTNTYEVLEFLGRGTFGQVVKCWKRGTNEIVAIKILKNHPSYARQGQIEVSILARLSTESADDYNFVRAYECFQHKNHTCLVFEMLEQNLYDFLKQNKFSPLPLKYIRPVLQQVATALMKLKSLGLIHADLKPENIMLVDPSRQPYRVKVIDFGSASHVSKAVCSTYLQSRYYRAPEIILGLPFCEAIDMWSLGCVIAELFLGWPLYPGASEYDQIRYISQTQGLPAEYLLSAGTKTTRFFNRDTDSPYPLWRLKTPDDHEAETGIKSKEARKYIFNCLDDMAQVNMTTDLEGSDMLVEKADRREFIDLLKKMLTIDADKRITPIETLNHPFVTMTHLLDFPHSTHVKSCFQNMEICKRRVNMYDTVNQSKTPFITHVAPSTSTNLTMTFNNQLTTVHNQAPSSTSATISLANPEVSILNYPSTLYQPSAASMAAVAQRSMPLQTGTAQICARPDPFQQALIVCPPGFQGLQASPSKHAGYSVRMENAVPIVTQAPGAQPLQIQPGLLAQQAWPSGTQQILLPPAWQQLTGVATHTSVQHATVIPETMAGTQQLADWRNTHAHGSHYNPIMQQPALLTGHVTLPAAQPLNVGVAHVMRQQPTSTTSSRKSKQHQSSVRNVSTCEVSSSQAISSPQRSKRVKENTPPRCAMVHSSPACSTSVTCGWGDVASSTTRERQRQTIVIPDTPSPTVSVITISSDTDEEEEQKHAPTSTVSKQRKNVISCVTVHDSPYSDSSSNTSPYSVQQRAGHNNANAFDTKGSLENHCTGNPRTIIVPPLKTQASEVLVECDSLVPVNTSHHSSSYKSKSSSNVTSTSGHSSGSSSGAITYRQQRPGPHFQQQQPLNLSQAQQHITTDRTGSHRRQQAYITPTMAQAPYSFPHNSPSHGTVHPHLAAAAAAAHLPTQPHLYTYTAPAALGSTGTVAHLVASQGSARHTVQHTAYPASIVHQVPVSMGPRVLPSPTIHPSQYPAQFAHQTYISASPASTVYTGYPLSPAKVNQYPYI
Protocol: as §4

SRPK1 = SRPK1 (Homo sapiens, UniProt Q96SB4); test: Selectivity screen SRPK1; type: biochemical; settings: 1 µM inhibitor, mean
Protocol: as §4

BTK = BTK (Homo sapiens, UniProt Q06187); test: Selectivity screen BTK; type: biochemical; settings: 1 µM inhibitor, mean
Chain of BTK (Q06187 whole entry): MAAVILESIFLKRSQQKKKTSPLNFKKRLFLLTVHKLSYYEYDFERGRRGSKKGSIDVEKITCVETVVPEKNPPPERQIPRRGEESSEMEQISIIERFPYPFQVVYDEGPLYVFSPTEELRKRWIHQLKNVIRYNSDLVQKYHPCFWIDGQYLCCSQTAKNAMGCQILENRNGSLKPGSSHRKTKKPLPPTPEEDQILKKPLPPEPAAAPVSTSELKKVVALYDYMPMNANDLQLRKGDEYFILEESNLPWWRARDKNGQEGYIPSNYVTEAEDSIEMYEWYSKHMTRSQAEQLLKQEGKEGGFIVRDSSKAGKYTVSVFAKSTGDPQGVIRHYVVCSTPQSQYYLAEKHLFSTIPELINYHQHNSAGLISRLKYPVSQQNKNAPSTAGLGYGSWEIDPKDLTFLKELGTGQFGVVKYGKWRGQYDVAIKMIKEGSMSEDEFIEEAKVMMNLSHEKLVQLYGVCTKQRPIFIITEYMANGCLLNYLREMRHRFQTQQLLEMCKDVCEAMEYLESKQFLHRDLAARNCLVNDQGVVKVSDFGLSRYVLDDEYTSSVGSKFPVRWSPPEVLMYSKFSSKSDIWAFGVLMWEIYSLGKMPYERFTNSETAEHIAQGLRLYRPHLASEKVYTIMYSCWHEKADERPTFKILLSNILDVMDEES

CK2 = CK2 (Homo sapiens, UniProt P68400); test: Selectivity screen CK2; type: biochemical; settings: 1 µM inhibitor, mean
Protocol: as §4

PDK1 = PDK1 (Homo sapiens, UniProt O15530); test: Selectivity screen PDK1; type: biochemical; settings: 1 µM inhibitor, mean
Protocol: as §4

ERK5 = ERK5 (Homo sapiens, UniProt Q13164); test: Selectivity screen ERK5; type: biochemical; settings: 1 µM inhibitor, mean
Protocol: as §4

PINK = PINK (Tribolium castaneum, UniProt D6WMX4); test: Selectivity screen PINK; type: biochemical; settings: 1 µM inhibitor, mean
Protocol: as §4

PAK2 = PAK2 (Homo sapiens, UniProt Q13177); test: Selectivity screen PAK2; type: biochemical; settings: 1 µM inhibitor, mean
Chain of PAK2 (Q13177 whole entry): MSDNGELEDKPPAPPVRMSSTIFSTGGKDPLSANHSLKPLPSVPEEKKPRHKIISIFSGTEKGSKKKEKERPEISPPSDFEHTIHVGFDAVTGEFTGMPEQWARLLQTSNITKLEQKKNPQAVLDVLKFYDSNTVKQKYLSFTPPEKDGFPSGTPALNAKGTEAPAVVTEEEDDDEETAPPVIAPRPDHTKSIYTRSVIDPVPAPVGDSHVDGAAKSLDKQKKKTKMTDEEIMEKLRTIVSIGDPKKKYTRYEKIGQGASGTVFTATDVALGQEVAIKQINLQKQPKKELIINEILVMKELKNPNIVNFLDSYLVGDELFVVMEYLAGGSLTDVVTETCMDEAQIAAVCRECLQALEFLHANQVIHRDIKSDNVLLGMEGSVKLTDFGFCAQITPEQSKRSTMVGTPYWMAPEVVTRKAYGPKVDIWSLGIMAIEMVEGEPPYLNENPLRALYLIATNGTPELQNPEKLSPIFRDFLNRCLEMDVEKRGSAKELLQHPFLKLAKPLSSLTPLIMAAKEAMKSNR
Protocol: as §4

MAPKAP-K3 = MAPKAP-K3 (Homo sapiens, UniProt Q16644); test: Selectivity screen MAPKAP-K3; type: biochemical; settings: 1 µM inhibitor, mean
Protocol: as §4

ERK2 = ERK2 (Homo sapiens, UniProt P28482); test: Selectivity screen ERK2; type: biochemical; settings: 1 µM inhibitor, mean
Protocol: as §4

ULK1 = ULK1 (Homo sapiens, UniProt O75385); test: Selectivity screen ULK1; type: biochemical; settings: 1 µM inhibitor, mean
Protocol: as §4

Aurora A = Aurora A (Homo sapiens, UniProt O14965); test: Selectivity screen Aurora A; type: biochemical; settings: 1 µM inhibitor, mean
MST2 = MST2 (Homo sapiens, UniProt Q13188); test: Selectivity screen MST2; type: biochemical; settings: 1 µM inhibitor, mean
Chain of MST2 (Q13188 whole entry): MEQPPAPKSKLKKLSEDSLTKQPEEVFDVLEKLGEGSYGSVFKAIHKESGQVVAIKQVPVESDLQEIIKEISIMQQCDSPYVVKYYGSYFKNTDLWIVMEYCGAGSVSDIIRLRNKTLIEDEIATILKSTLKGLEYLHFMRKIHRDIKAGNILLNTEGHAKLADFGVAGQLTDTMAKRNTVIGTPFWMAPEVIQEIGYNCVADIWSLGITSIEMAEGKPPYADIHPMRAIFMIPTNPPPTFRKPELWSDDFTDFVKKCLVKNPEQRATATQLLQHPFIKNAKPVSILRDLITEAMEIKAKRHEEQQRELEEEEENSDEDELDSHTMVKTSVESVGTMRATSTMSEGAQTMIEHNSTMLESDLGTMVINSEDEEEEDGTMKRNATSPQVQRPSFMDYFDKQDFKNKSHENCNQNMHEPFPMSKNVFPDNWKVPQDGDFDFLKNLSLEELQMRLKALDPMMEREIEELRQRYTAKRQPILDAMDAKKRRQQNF
Protocol: as §4

GCK = GCK (Homo sapiens, UniProt Q12851); test: Selectivity screen GCK; type: biochemical; settings: 1 µM inhibitor, mean
Protocol: as §4

NUAK1 = NUAK1 (Homo sapiens, UniProt O60285); test: Selectivity screen NUAK1; type: biochemical; settings: 1 µM inhibitor, mean
Protocol: as §4

EPH-B3 = EPH-B3 (Homo sapiens, UniProt P54753); test: Selectivity screen EPH-B3; type: biochemical; settings: 1 µM inhibitor, mean
Protocol: as §4

SMILES | pIC50 [1] | pIC50 [2] | activity remaining in the presence of the inhibitor: PKCa (PKCa) | remaining activity at 1 µM (PKBb) | activity remaining in the presence of the inhibitor: p38a MAPK (p38a MAPK) | activity remaining in the presence of the inhibitor: SmMLCK (SmMLCK) | activity remaining in the presence of the inhibitor: HIPK2 (HIPK2) | activity remaining in the presence of the inhibitor: SRPK1 (SRPK1) | activity remaining in the presence of the inhibitor: BTK (BTK) | activity remaining in the presence of the inhibitor: CK2 (CK2) | activity remaining in the presence of the inhibitor: PDK1 (PDK1) | pIC50 (TYK2; ATP 25 μM) | activity remaining in the presence of the inhibitor: ERK5 (ERK5) | activity remaining in the presence of the inhibitor: PINK (PINK) | activity remaining in the presence of the inhibitor: PAK2 (PAK2) | activity remaining in the presence of the inhibitor: MAPKAP-K3 (MAPKAP-K3) | activity remaining in the presence of the inhibitor: ERK2 (ERK2) | activity remaining in the presence of the inhibitor: ULK1 (ULK1) | activity remaining in the presence of the inhibitor: Aurora A (Aurora A) | activity remaining in the presence of the inhibitor: MST2 (MST2) | also measured
C=CC(=O)N1C[C@H](Nc2ncnc3[nH]ccc23)CC[C@@H]1C [PF-06651600, 1-((2S,5R)-5-((7H-Pyrrolo[2,3-d]pyrimidin-4-yl)amino)-2-methylpiperidin-1-yl)prop-2-en-1-one, reference compound] | < 5.00 | 6.25 |  |  |  |  |  |  |  |  |  |  |  |  |  |  |  |  |  |  | pIC50 (TYK2; ATP 12 μM): < 5.00
C=CC(=O)Nc1cccc(CNc2nc(Nc3ccc(N4CCN(C)CC4)cc3OC)ncc2Cl)c1 [TL6-144] | […] | 6.26 | 81 | 107% | 96 | 62 | 87 | 91 | 37 | 103 | 101 | […] | 87 | 107 | 81 | 119 | 106 | 65 | 94 | 83 | inhibition of IL-4 induced STAT6 phosphorylation, JAK3 Cys905Ser knockin BMDMs ([1]; 10 μM inhibitor): did not inhibit; activity remaining in the presence of the inhibitor: GCK (GCK): 92; activity remaining in the presence of the inhibitor: NUAK1 (NUAK1): 4; activity remaining in the presence of the inhibitor: EPH-B3 (EPH-B3): 77
C=CC(=O)Nc1cccc(CNc2nc(Nc3ccc(N4CCOCC4)cc3)ncc2Cl)c1 [TL8-52] | 6.27 | 7.00 | 91 | 107% | 119 | 98 | 97 | 97 | 44 | 103 | 86 | 6.49 | 63 | 110 | 75 | 62 | 97 | 48 | 13 | 48 | activity remaining in the presence of the inhibitor: GCK (GCK): 21; activity remaining in the presence of the inhibitor: NUAK1 (NUAK1): 3; activity remaining in the presence of the inhibitor: EPH-B3 (EPH-B3): 73

Reference: paper PMC8115619, “Generation of a chemical genetic model for JAK3” (Scientific Reports, 2021)
